Data set [1] deals with HCT116. As to the kind of experiment: Cell colony formation assay. As to conditions: 72 hours with drug, colonies counted after 7 days. Format: cell-based. As for the experimental part: This example provides directions for growing cells and testing compounds of the invention for their effect on the growth of the cells. All cells were purchased from DCTDC Tumor Repository, NCI, NIH.
Cell Colony Formation Assay
Four hundred cells (HCT 116, PC-3) or five hundred cells (VM46) were plated in 60 mm Petri dishes containing 2.7 ml of medium (modified McCoy's 5a medium) containing 10% fetal bovine serum and 100 units/ml penicillin and […] streptomycin. The cells were incubated in a CO2 incubator at 37° C. for 5 hours for attachment to the bottom of Petri dishes. Drugs were made fresh in medium at ten times the final concentration, and then 0.3 ml of this stock solution was added to the 2.7 ml of medium in the dish. The cells were then incubated with drugs for 72 hours at 37° C. At the end of the incubation the drug-containing media were decanted, the dishes were rinsed with 4 ml of Hank's Balance Salt Solution (HBSS), 5 ml of fresh medium was added, and the dishes were returned to the incubator for colony formation. The cell colonies were counted using colony counter after incubation for 7 days for HCT116 cells and PC-3 cells and 8 days for VM46 cells, respectively.
Values of ID50 (the drug concentration producing 50% inhibition of colony formation) may be determined for each tested compound. The directions described in this example may be used in other cells, such as DU-145.

Data set [2] relates to MTG-B mouse mammary adenocarcinoma. As to the kind of experiment: In vivo efficacy in mice bearing MTG-B tumors. Also on record: species or system C3H/HeJ mice. The conditions noted are these: for Surviving days after treatment of MTG-B mouse mammary adenocarcinoma in C3H/Hcj mice: i.p., days from day 0, survival time of control mice generally 6 days; for T/C %: surviving days of treated mice / surviving days of control mice x 100%. As to the method: This example provides directions for performing in vivo efficacy tests of the compounds of the invention on C3H/HeJ mice bearing MTG-B tumors.
Studies on the compounds of this invention are performed on C3H/HeJ mice bearing MTG-B tumors. The tumors grow exponentially following implantation into the flanks of the mice and reached a diameter of 8 mm (268.08 mm^3) by day 7 to 10. Treatment is initiated at that time, with the first day of treatment designated as day 0 for calculation and plots. The mice are injected i.p. with three drug dose levels (⅓, ½, 1 5 MTD) using both a single injection and the schedule of Q2D 5 3 (every 2 days for a total of 3 treatments at ⅓ MTD). Control groups of mice bearing 8 mm diameter tumors are treated with vehicle alone. After drug treatment, the mice are observed twice a day. When a tumor reaches 1.5 g, the mouse bearing the tumor wis euthanized. Surviving days measured from day 0 for mice treated with anticancer drugs (T) and surviving days measured from day 0 for control mice (C) are recorded. Tumor growth inhibition values (T/C %) are calculated using the formula T/C %=(surviving days of mice treated with an anticancer drug T/surviving days of control mice C) 5 100%.
Tumor sizes may be measured by caliper every day. Daily measurement (mm) of solid tumor (length L and width W) in two dimensions is used to calculate the tumor weight [tumor weight=(length 5 width^2)/2] based on the interchangeable value of 1 mm^3=1 mg. Tumor growth delay (T−C value) is determined by calculation of the median time (in days) required for the treatment group and control group tumors to reach 1,000 mg. Tumor doubling time (Td) is measured, and tumor cell kill is calculated by the formula of log cell kill=(T−C value)/(3.32 5 Td). Regression effects after treatment may be observed and recorded (a complete regression: a regression below limit of palpation; a partial regression: a regression of more than 50% reduction in tumor mass).
Generally, the survival time of the control mice is six (6) days. A ratio of the extra days of survival of mice treated with the compounds of the invention (compared to control) to the extra days of survival of mice treated with taxol (compared to control), can be calculated. For example, if the mice survived 18 days as compared to 9 days for taxol-treated mice, the CD/Taxol ratio would be 18−6/9−6=12/3=4 or 400%.
The following Table II provides a summary of the in vivo toxicity and iv vivo efficacy tests described in Examples 41 and 42 for the compounds tested.

Data set [3] has as its system C3H/HeJ mice. Briefly: In vivo toxicity (MTD / nontoxicity dose), intraperitoneal injection. As to conditions: highest dose causing no severe irreversible toxicity. As for the experimental part:
This example provides directions for performing in vivo toxicity tests of the compounds of the invention on C3H/HeJ mice.
Acute toxicities of the compounds of this invention are evaluated on C3H/HeJ mice (body weight 18-22 g). The MTD40 (maximum tolerated dose at day 40) values are determined by the standard procedure described by Gad and Chengelis (see, for example, “Acute Toxicology Testing,” 2nd Ed., Shayne O. Gad and Christopher P. Chengelis, pp. 186-195 (Academic Press).) In the consecutive type studies, 2 mice are dosed at low and moderate doses of 40 and 100 mg/kg. If no severe and irreversible toxicity (euthanasia is required) occurs at these doses, a new pair of animals is initiated at 180 mg/kg, which is 1.8 times higher than 100 mg/kg. Sequential dosages (about 3 doses on 3 pairs of animals, i.e. 2 mice for each drug dose) are increased by a factor of 1.8 until severe and irreversible toxicity (euthanasia is required) occurred. Then another pair of animals is initiated at the highest nonlethal dosage, and successive dosages were increased by a factor of 1.15. The result of this exercise is two dosages, one apparently nonlethal and the other lethal if severe and irreversible toxicity occurs and euthanasia is required, separated by a factor of 1.15. Six mice are dosed at each dosage. If no severe and irreversible toxicity occurs at the lower dosage and at least one with severe and irreversible toxicity occurs at the higher dose, then the lower dose is considered to be the MTD. The compounds of this invention are administered to C3H/HeJ mice by intraperitoneal injection (IP). Drug toxicity is evaluated on mice checked daily for 45 days. The toxicity parameters reported will be the MTD40.

Here are results for 13 molecules from US6825236B2, “Colchicine derivatives” (California Pacific Medical Center, priority 2003, dated 2004).

As for “N-Deacetyl-N-(4-methoxyphenoxyacetyl)thiocolchicine [Compound 000818]”, the results for the “Survival (%) of HCT116” value in data set [1] (10 nM) and in data set [1] (100 nM) were 98.8% and 0%, respectively. Also, the “Surviving days after treatment of MTG-B mouse mammary adenocarcinoma in C3H/Hcj mice” value (shortened to “Surviving days after treatment … in C3H/Hcj mice”) in data set [2] is 8 days.

`COc1cc2c(c(OC)c1OC)-c1ccc(SC)c(=O)cc1C(NC(=O)c1cc(=O)c3ccccc3o1)CC2` (stereo not shown) [Compound 000914, N-Deacetyl-N-(chromone-2-carbonyl)thiocolchicine]: the “Survival (%) of HCT116” value is on record as 3.54% in data set [1] (10 nM) and 0% in data set [1] (100 nM). For the same molecule, the “In Vivo Toxicity Nontoxicity Dose (ip. mg/kg) in C3H/Hej mice” value in data set [3] was 150 (120) mg/kg.

`COc1ccc(OCC(=O)N[C@H]2CCc3cc(OC)c(OC)c(OC)c3-c3ccc(SC)c(=O)cc32)cc1` [Compound 000825, N-Deacetyl-N-(4-methoxyphenoxyacetyl)thiocolchicine]: the figures for the “Survival (%) of HCT116” value in data set [1] (1 nM), in data set [1] (10 nM) and in data set [1] (100 nM) were 90.25%, 0% and 0%, respectively. Also, in data set [3], the “In Vivo Toxicity Nontoxicity Dose (ip. mg/kg) in C3H/Hej mice” value is 50 (30) mg/kg. Besides, the “Surviving days after treatment … in C3H/Hcj mice” value in data set [2] is 18 days.

Take `COc1cc2c(c(OC)c1OC)-c1ccc(SC)c(=O)cc1C(NC(=O)COc1ccc(Cl)cc1)CC2` (stereo not shown) [Compound 000814, N-Deacetyl-N-(4-chlorophenoxyacetyl)thiocolchicine]: the “Survival (%) of HCT116” value in data set [1] (10 nM) is recorded as 87.7%; in data set [1] (100 nM) it was 0%. In addition, in data set [3], the “In Vivo Toxicity Nontoxicity Dose (ip. mg/kg) in C3H/Hej mice” value stood at 100 mg/kg.

Regarding `COc1cc2c(c(OC)c1OC)-c1ccc(SC)c(=O)cc1C(NC(=O)COc1cc(C)ccc1C)CC2` (stereo not shown) [Compound 000817, N-Deacetyl-N-(2,5-dimethylphenoxyacetyl)thiocolchicine], the “Survival (%) of HCT116” value in data set [1] (10 nM) is reported as 99.8%; in data set [1] (100 nM) it was 0%. In data set [3], the “In Vivo Toxicity Nontoxicity Dose (ip. mg/kg) in C3H/Hej mice” value is reported as 100 mg/kg.

As for `COc1cc2c(c(OC)c1OC)-c1ccc(SC)c(=O)cc1C(NC(=O)COc1ccccc1[N+](=O)[O-])CC2` (stereo not shown) [Compound 000830, N-Deacetyl-N-(2-nitrophenoxyacetyl)thiocolchicine], the “Survival (%) of HCT116” value in data set [1] (10 nM) was 9.01%. Moreover, the “Survival (%) of HCT116” value in data set [1] (100 nM) was 0%. Besides, the “In Vivo Toxicity Nontoxicity Dose (ip. mg/kg) in C3H/Hej mice” value in data set [3] is 150 (120) mg/kg. Moreover, in data set [2], the “Surviving days after treatment … in C3H/Hcj mice” value was determined as 8 days and the T/C % is 133%.

Turning to `COc1cc2c(c(OC)c1OC)-c1ccc(SC)c(=O)cc1C(NC(=O)COc1ccc(Br)cc1)CC2` (stereo not shown) [Compound 000815, N-Deacetyl-N-(4-bromophenoxyacetyl)thiocoichicine], the “Survival (%) of HCT116” value in data set [1] (10 nM) was determined as 93.8%. Also, the “Survival (%) of HCT116” value in data set [1] (100 nM) came to 0%. In data set [3], the “In Vivo Toxicity Nontoxicity Dose (ip. mg/kg) in C3H/Hej mice” value was 100 (100) mg/kg. Also, in data set [2], the “Surviving days after treatment … in C3H/Hcj mice” value was found to be 9 days and the T/C % worked out at 150%.

As to `COc1cc2c(c(OC)c1OC)-c1ccc(SC)c(=O)cc1C(NC(=O)COc1ccc(F)cc1)CC2` (stereo not shown) [Compound 000811, N-Deacetyl-N-(4-fluorophenoxyacetyl)thiocolchicine], the results for the “Survival (%) of HCT116” value in data set [1] (10 nM) and in data set [1] (100 nM) were 50.4% and 0%, respectively. Besides, the “In Vivo Toxicity Nontoxicity Dose (ip. mg/kg) in C3H/Hej mice” value in data set [3] is listed as 150 mg/kg.

`COc1cc2c(c(OC)c1OC)-c1ccc(SC)c(=O)cc1C(NC(=O)c1ccc([N+](=O)[O-])o1)CC2` (stereo not shown) [Compound 000906, N-Deacetyl-N-(5-nitro-2-furnancarbonyl)thiocolchicine]: the “Survival (%) of HCT116” value came to 98.67% in data set [1] (1 nM), 0% in data set [1] (10 nM) and 0% in data set [1] (100 nM). Besides, the “In Vivo Toxicity Nontoxicity Dose (ip. mg/kg) in C3H/Hej mice” value in data set [3] came out at 50 mg/kg.

For `COc1cc2c(c(OC)c1OC)-c1ccc(SC)c(=O)cc1C(NC(=O)COc1ccc(I)cc1)CC2` (stereo not shown) [Compound 000816, N-Deacetyl-N-(4-iodophenoxyacetyl)thiocolchicine], the “Survival (%) of HCT116” value in data set [1] (10 nM) is 100%; in data set [1] (100 nM), 0%. In data set [3], the “In Vivo Toxicity Nontoxicity Dose (ip. mg/kg) in C3H/Hej mice” value came to 100 mg/kg.

For the molecule `COc1cc2c(c(OC)c1OC)-c1ccc(OC)c(=O)cc1C(NC(C)=O)CC2` (stereo not shown) [Colchicine], the results for the “Survival (%) of HCT116” value in data set [1] (1 nM), in data set [1] (10 nM) and in data set [1] (100 nM) were 100%, 76.1% and 0%, respectively. The “In Vivo Toxicity Nontoxicity Dose (ip. mg/kg) in C3H/Hej mice” value in data set [3] is listed as 1.6 (0.5) mg/kg. For the same molecule, the “Surviving days after treatment … in C3H/Hcj mice” value in data set [2] is recorded as 9 days. The T/C % in data set [2] turned out to be 150%.

For `COc1cc2c(c(OC)c1OC)-c1ccc(SC)c(=O)cc1C(NC(=O)COc1ccc(C=O)cc1)CC2` (stereo not shown) [Compound 000829, N-Deacetyl-N-(4-formylphenoxyacetyl)thiocolchicine], the “Survival (%) of HCT116” value in data set [1] (1 nM) amounted to 100%; in data set [1] (10 nM) it was 0%; in data set [1] (100 nM), 0%. Further, in data set [3], the “In Vivo Toxicity Nontoxicity Dose (ip. mg/kg) in C3H/Hej mice” value was 150 (120) mg/kg. The “Surviving days after treatment … in C3H/Hcj mice” value in data set [2] came to 13 days. For the same molecule, the T/C % in data set [2] stood at 217%.

As to `COc1cc2c(c(OC)c1OC)-c1ccc(SC)c(=O)cc1C(NC(=O)c1cccc(NC(=O)CCl)c1)CC2` (stereo not shown) [Compound 000911, N-Deacetyl-N-(3-chloroacetaminobenzoyl)thiocolchicine], the “Survival (%) of HCT116” value in data set [1] (1 nM) is on record as 100%; in data set [1] (10 nM), 0%; in data set [1] (100 nM) it was 0%. Besides, the “In Vivo Toxicity Nontoxicity Dose (ip. mg/kg) in C3H/Hej mice” value in data set [3] is listed as 30 (30) mg/kg. For the same molecule, the “Surviving days after treatment … in C3H/Hcj mice” value in data set [2] worked out at 11 days. Besides, in data set [2], the T/C % was 183%.
